Data from US20120065066A1, “NOVEL HERBICIDES” (SYNGENTA CROP PROTECTION LLC, priority 2009, published 2012).

What was measured:
Format in all cases: in vivo
[1] = system: Alopecurus myosuroides (ALOMY); experiment: Test Example 1, pre-emergence herbicidal test; conditions: 480 h, evaluated 20 days later, 100=total damage to plant, 0=no damage to plant
Experimental: (§1) Monocotyledonous and dicotyledonous test plants were sown in standard soil in pots. After cultivation for one day (pre-emergence) or after 10 days cultivation (post-emergence) under controlled conditions in a glasshouse, the plants were sprayed with an aqueous spray solution derived from the formulation of the technical active ingredient in 0.6 ml acetone and 45 ml formulation solution containing 10.6% Emulsogen EL (Registry number 61791-12-6), 42.2% N-methylpyrrolidone, 42.2% dipropylene glycol monomethyl ether (Registry number 34590-94-8) and 0.2% X-77 (Registry number 11097-66-8). The test plants were then grown in a greenhouse under optimum conditions until, 15 days later for post-emergence and 20 days for pre-emergence, the test was evaluated (100=total damage to plant; 0=no damage to plant). Test Plants: Lolium perenne (LOLPE), Setaria faberi (SETFA), Digitaria sanguinalis (DIGSA), Alopecurus myosuroides (ALOMY), Echinochloa crus-galli (ECHCG) and Avena fatua (AVEFA), Pre-Emergence Data: […]

[2] = system: Avena fatua (AVEFA); experiment: Test Example 1, pre-emergence herbicidal test; conditions: 480 h, evaluated 20 days later, 100=total damage to plant, 0=no damage to plant
Experimental: as §1

[3] = system: Digitaria sanguinalis (DIGSA); experiment: Test Example 1, pre-emergence herbicidal test; conditions: 480 h, evaluated 20 days later, 100=total damage to plant, 0=no damage to plant
Experimental: as §1

[4] = system: Echinochloa crus-galli (ECHCG); experiment: Test Example 1, pre-emergence herbicidal test; conditions: 480 h, evaluated 20 days later, 100=total damage to plant, 0=no damage to plant
Experimental: as §1

[5] = system: Lolium perenne (LOLPE); experiment: Test Example 1, pre-emergence herbicidal test; conditions: 480 h, evaluated 20 days later, 100=total damage to plant, 0=no damage to plant
Experimental: as §1

[6] = system: Setaria faberi (SETFA); experiment: Test Example 1, pre-emergence herbicidal test; conditions: 480 h, evaluated 20 days later, 100=total damage to plant, 0=no damage to plant, read-out: SEFTA damage to plant
Experimental: as §1

[7] = system: Alopecurus myosuroides (ALOMY); experiment: Test Example 1, post-emergence herbicidal test; conditions: 360 h, evaluated 15 days later, 100=total damage to plant, 0=no damage to plant
Experimental: as §1, with “Post-Emergence” for “Pre-Emergence”

[8] = system: Avena fatua (AVEFA); experiment: Test Example 1, post-emergence herbicidal test; conditions: 360 h, evaluated 15 days later, 100=total damage to plant, 0=no damage to plant
Experimental: as §1, with “Post-Emergence” for “Pre-Emergence”

[9] = system: Digitaria sanguinalis (DIGSA); experiment: Test Example 1, post-emergence herbicidal test; conditions: 360 h, evaluated 15 days later, 100=total damage to plant, 0=no damage to plant
Experimental: as §1, with “Post-Emergence” for “Pre-Emergence”

[10] = system: Echinochloa crus-galli (ECHCG); experiment: Test Example 1, post-emergence herbicidal test; conditions: 360 h, evaluated 15 days later, 100=total damage to plant, 0=no damage to plant
Experimental: as §1, with “Post-Emergence” for “Pre-Emergence”

[11] = system: Lolium perenne (LOLPE); experiment: Test Example 1, post-emergence herbicidal test; conditions: 360 h, evaluated 15 days later, 100=total damage to plant, 0=no damage to plant
Experimental: as §1, with “Post-Emergence” for “Pre-Emergence”

[12] = system: Setaria faberi (SETFA); experiment: Test Example 1, post-emergence herbicidal test; conditions: 360 h, evaluated 15 days later, 100=total damage to plant, 0=no damage to plant, read-out: SEFTA damage to plant
Experimental: as §1, with “Post-Emergence” for “Pre-Emergence”

[13] = system: Alopecurus myosuroides (ALOMY); experiment: Test Example B, pre-emergence herbicidal test; conditions: 312 h, evaluated after 13 days, 100=total damage to plant, 0=no damage to plant
Experimental: (§2) Seeds of a variety of test species were sown in standard soil in pots. After cultivation for one day (pre-emergence) or after 8 days cultivation (post-emergence) under controlled conditions in a glasshouse (at 24/16° C., day/night; 14 hours light; 65% humidity), the plants were sprayed with an aqueous spray solution derived from the formulation of the technical active ingredient in acetone/water (50:50) solution containing 0.5% Tween 20 (polyoxyethelyene sorbitan monolaurate, CAS RN 9005-64-5). The test plants were then grown in a glasshouse under controlled conditions in a glasshouse (at 24/16° C., day/night; 14 hours light; 65% humidity) and watered twice daily. After 13 days for pre and post-emergence, the test was evaluated (100=total damage to plant; 0=no damage to plant). Test Plants: Setaria faberi (SETFA), Alopecurus myosuroides (ALOMY), Echinochloa crus-galli (ECHCG), and Avena fatua (AVEFA).

[14] = system: Avena fatua (AVEFA); experiment: Test Example B, pre-emergence herbicidal test; conditions: 312 h, evaluated after 13 days, 100=total damage to plant, 0=no damage to plant
Experimental: as §2

[15] = system: Echinochloa crus-galli (ECHCG); experiment: Test Example B, pre-emergence herbicidal test; conditions: 312 h, evaluated after 13 days, 100=total damage to plant, 0=no damage to plant
Experimental: as §2

[16] = system: Alopecurus myosuroides (ALOMY); experiment: Test Example B, post-emergence herbicidal test; conditions: 312 h, evaluated after 13 days, 100=total damage to plant, 0=no damage to plant
Experimental: as §2

[17] = system: Avena fatua (AVEFA); experiment: Test Example B, post-emergence herbicidal test; conditions: 312 h, evaluated after 13 days, 100=total damage to plant, 0=no damage to plant
Experimental: as §2

[18] = system: Echinochloa crus-galli (ECHCG); experiment: Test Example B, post-emergence herbicidal test; conditions: 312 h, evaluated after 13 days, 100=total damage to plant, 0=no damage to plant
Experimental: as §2

Structure (SMILES)	pest or weed control at 250 g/ha [1] [%]	pest or weed control at 250 g/ha [2] [%]	pest or weed control at 250 g/ha [3] [%]	pest or weed control at 250 g/ha [4] [%]	pest or weed control at 250 g/ha [5] [%]	pest or weed control at 250 g/ha [6] [%]	pest or weed control at 125 g/ha [7] [%]	pest or weed control at 125 g/ha [8] [%]	pest or weed control at 125 g/ha [9] [%]	pest or weed control at 125 g/ha [10] [%]	pest or weed control at 125 g/ha [11] [%]	pest or weed control at 125 g/ha [12] [%]	pest or weed control at 250 g/ha [13] [%]	pest or weed control at 250 g/ha [14] [%]	pest or weed control at 250 g/ha [15] [%]	pest or weed control at 250 g/ha [16] [%]	pest or weed control at 250 g/ha [17] [%]	pest or weed control at 250 g/ha [18] [%]
CCc1cc(C)cc(CC)c1C1=C(O)[C@@H]2[C@H](C1=O)[C@H]1CC[C@@H]2C1=C(C)C [Compound T52]	50	60	80	90	70	100	90	20	70	80	50	80						
CCc1cc(C)cc(CC)c1C1=C(O)[C@@H]2[C@H](C1=O)[C@@H]1CC[C@H]2C1=C(C)C [Compound T51]	60	60	80	90	100	80	30	0	30	10	50	0						
Cc1cc(C)c(C2=C(O)[C@H]3[C@H]4CC[C@H](CC4)[C@H]3C2=O)c(C)c1 [Compound T47]	90	50	100	70	80	100	0	40	80	60	40	60						
Cc1cc(C)c(C2=C(O)[C@H]3[C@H]4CC[C@H](C4)[C@H]3C2=O)c(C)c1 (racemic) [Compound T50, rac-(5S,6S,7R)-2-(2,4,6-trimethylphenyl)hexahydro-4,7-methanoindene-1,3-dione]	70	50	80	70	100	100	30	10	30	20	30	0						
CCc1ccc(-c2ccc(Cl)cc2)cc1C1=C(O)[C@H]2C3CCC(C3=C(C)C)[C@H]2C1=O (stereo partly drawn) [Compound T21]	60	20	50	30	40	60	20	20	20	0	0	20						
CCc1ccc(-c2ccc(Cl)cc2)cc1C1=C(O)[C@H]2[C@H]3C=C[C@](OC)(CC3)[C@H]2C1=O (racemic) [Compound T8, rac-(3aS,4R,7R,7aS)-2-(4′-chloro-4-ethylbiphenyl-3-yl)-4-methoxy-3a,4,7,7a-tetrahydro-4,7-ethanoindene-1,3-dione]	60	10	100	100	70	90	70	10	100	100	0	80						
CCc1ccc(-c2ccc(Cl)cc2)cc1C1=C(O)[C@@H]2[C@H](C1=O)[C@@H]1C=C[C@H]2CC1 (racemic) [Compound T6, rac-(3aR,4S,7R,7aS)-2-(4′-chloro-4-ethylbiphenyl-3-yl)-3a,4,7,7a-tetrahydro-4,7-ethanoindene-1,3-dione]													60	40	100	70	60	100
CCc1ccc(-c2ccc(Cl)cc2Cl)cc1C1=C(O)[C@H]2[C@H]3CC[C@H](C3)[C@H]2C1=O [Compound T29]													30	90	100	30	0	100
CCc1ccc(-c2ccc(Cl)cc2C)cc1C1=C(O)[C@H]2[C@H]3CC[C@H](C3)[C@H]2C1=O [Compound T30]													40	30	100	0	0	90
CCc1ccc(-c2ccc(Cl)c(F)c2Cl)cc1C1=C(O)[C@H]2[C@H]3CC[C@H](CC3)[C@H]2C1=O [Compound T43]													0	20	40	70	30	100
CCc1ccc(-c2ccc(Cl)cc2Cl)cc1C1=C(O)[C@H]2[C@H]3CC[C@H](CC3)[C@H]2C1=O [Compound T11]													0	0	60	90	100	100
CCc1ccc(-c2ccc(Cl)c(Cl)c2)cc1C1=C(O)[C@H]2[C@H]3CC[C@H](CC3)[C@H]2C1=O [Compound T13]													20	0	90	60	60	100
CCc1ccc(-c2ccc(Cl)c(F)c2)cc1C1=C(O)[C@H]2[C@H]3CC[C@H](C3)[C@H]2C1=O [Compound T35]													80	70	90	90	90	90
Cc1ccc(-c2ccc(Cl)cc2)cc1C1=C(O)[C@H]2[C@H]3CC[C@H](C3)[C@H]2C1=O [Compound T2]													30	80	100	40	60	100
